The target in one series is T1, human IRAK4 (Homo sapiens, UniProt Q9NWZ3).
T1 construct: GST (N); made in house; host or cells: baculovirus-infected Hi5 (BTI-TN-5B1-4) insect cells
T1 sequence (Q9NWZ3 1-460): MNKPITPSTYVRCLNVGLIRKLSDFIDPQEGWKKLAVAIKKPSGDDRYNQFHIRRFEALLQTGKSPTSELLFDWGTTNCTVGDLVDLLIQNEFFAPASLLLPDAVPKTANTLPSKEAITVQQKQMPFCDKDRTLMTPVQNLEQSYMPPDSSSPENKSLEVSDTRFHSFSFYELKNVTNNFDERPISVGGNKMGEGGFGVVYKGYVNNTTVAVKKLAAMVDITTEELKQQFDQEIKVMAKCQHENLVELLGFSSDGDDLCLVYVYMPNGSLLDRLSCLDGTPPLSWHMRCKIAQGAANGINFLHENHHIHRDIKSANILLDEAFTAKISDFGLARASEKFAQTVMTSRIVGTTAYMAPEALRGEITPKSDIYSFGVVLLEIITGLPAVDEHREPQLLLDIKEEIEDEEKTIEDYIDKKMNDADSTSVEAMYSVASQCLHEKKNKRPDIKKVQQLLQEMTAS
As to the kind of experiment: Human IRAK4 kinase activity inhibition assay (IRAK4 TR-FRET assay). The format is biochemical. Conditions: 1 mM ATP, GST-human IRAK4, average or median values. In outline:
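GST-IRAK4 from insect cells (about 0.2 nM, linear range) was preincubated 15 min with compound (11 concentrations, 20 µM–0.073 nM) in HEPES pH 7.5 with MgCl2 and DTT before kinase reaction on a biotinylated peptide. Phosphopeptide was detected by TR-FRET (Eu anti-mouse-IgG/anti-phosphoserine/streptavidin-XL665, 1 h at 22°C) as the 665/620 nm ratio, normalized to no-compound and no-enzyme controls.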

The target of a further series is T2, canine Irak4 (Canis lupus familiaris, UniProt A0A8I3S726).
T2 sequence (A0A8I3S726 2-459): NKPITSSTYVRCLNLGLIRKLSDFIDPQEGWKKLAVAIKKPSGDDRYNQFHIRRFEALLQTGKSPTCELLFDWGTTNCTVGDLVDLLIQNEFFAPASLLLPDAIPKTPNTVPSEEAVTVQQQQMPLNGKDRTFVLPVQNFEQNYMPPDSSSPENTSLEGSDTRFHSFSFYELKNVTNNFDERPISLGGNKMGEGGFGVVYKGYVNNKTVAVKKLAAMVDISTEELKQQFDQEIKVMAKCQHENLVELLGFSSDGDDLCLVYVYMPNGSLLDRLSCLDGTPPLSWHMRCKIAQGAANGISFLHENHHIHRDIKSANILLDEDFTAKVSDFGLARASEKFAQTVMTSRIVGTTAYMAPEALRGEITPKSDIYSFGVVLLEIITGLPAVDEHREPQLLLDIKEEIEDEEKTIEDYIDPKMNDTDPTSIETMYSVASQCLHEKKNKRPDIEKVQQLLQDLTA
As to the kind of experiment: Canine Irak4 kinase assay (TR-FRET). The format is biochemical. Conditions: 1 mM ATP, His6-tagged canine Irak4, average or median values.

A short description of series [1]: Metabolic stability in human liver microsomes. Conditions: 1 µM compound; for CLblood, human microsomes: hepatic in vivo blood clearance calculated with well stirred liver model, '(stable)' given beside < 0.01; for Fmax, human microsomes: maximal oral bioavailability calculated with well stirred liver model, 0.5 mg/mL protein, '(stable)' given beside 100.
Protocol: The in vitro metabolic stability of test compounds was determined by incubating them at 1 µM in a suspension liver microsomes in 100 mM phosphate buffer, pH7.4 (NaH2PO4 x H2O + Na2HPO4 x 2H2O) and at a protein concentration of 0.5 mg/mL at 37° C. The microsomes were activated by adding a co-factor mix containing 8 mM Glukose-6-Phosphat, 4 mM MgCl2, 0.5 mM NADP and 1 IU/mL G-6-P-Dehydrogenase in phosphate buffer, pH 7.4. The metabolic assay was started shortly afterwards by adding the test compound to the incubation at a final volume of 1 mL. Organic solvent in the incubations was limited to ≤0.01 % dimethylsulfoxide (DMSO) and ≤1% acetonitril. During incubation, the microsomal suspensions were continuously shaken at 580 rpm, and aliquots were taken at 2, 8, 16, 30, 45 and 60 min, to which equal volumes of cold methanol were immediately added. Samples were frozen at -20° C over night, subsequently centrifuged for 15 min at 3000 rpm and the supernatant was analyzed with an Agilent 1200 HPLC-system with LCMS/MS detection.
The half-life of a test compound was determined from the concentration-time plot. From the half-life the intrinsic clearances were calculated. Together with the additional parameters liver blood flow, specific liver weight and microsomal protein content the hepatic in vivo blood clearance (CL) and the maximal oral bioavailability (Fmax) were calculated using the "well stirred" liver model. The following parameter values were used: Liver blood flow - 1.32 L/h/kg (human), 2.1 L/h/kg (dog); specific liver weight - 21 g/kg (human), 39 g/kg (dog); microsomal protein content - 40 mg/g.
Series [2] in a line: Metabolic stability in dog liver microsomes. The following applies: 1 µM compound; for CLblood, dog microsomes: hepatic in vivo blood clearance calculated with well stirred liver model, '(stable)' given beside < 0.01; for Fmax, dog microsomes: maximal oral bioavailability calculated with well stirred liver model, 0.5 mg/mL protein, '(stable)' given beside 100. The format is in vitro ADME. As to the method:
From the half-life the intrinsic clearances were calculated.

What is called IC50 is the midpoint of a concentration-inhibition curve. A higher IC50 goes with lower potency. For `CC(C)(O)C1CCN(c2nc(NC3CCS(=O)(=O)C3)nc3c2cnn3-c2cccc(C(F)(F)F)c2)CC1` (single isomer, unassigned; (+)) [Example I-4-2, (+)-2-(1-{6-[(1,1-dioxidotetrahydrothiophen-3-yl)amino]-1-[3-(trifluoromethyl)phenyl]-1H-pyrazolo[3,4-d]pyrimidin-4-yl}piperidin-4-yl)propan-2-ol], the IC50 against human IRAK4 was found to be 8.27 nM. The compound further registered an IC50 against canine Irak4 of 8.54 nM. For the same compound, in series [1], the “CLblood, human microsomes” value is 2.33 mL/min/kg and the “Fmax, human microsomes” value is reported as 89%.

In the case of `O=C1C[C@H](Nc2nc(N3CC(N4CCOCC4)C3)c3cnn(-c4cccc(C(F)(F)F)c4)c3n2)CN1` [Example I-1-1, (4S)-4-({4-[3-(morpholin-4-yl)azetidin-1-yl]-1-[3-(trifluoromethyl)phenyl]-1H-pyrazolo-[3,4-d]pyrimidin-6-yl}amino)pyrrolidin-2-one], the IC50 at human IRAK4 is 3.04 nM; against canine Irak4, 3.19 nM.

As to `CC(C)(O)C1CCN(c2nc(N[C@@H]3CNC(=O)C3)nc3c2cnn3-c2cccc(C(F)(F)F)c2)CC1` [Example I-2-1, (4S)-4-({4-[4-(2-hydroxypropan-2-yl)piperidin-1-yl]-1-[3-(trifluoromethyl)phenyl]-1H-pyrazolo[3,4-d]pyrimidin-6-yl}amino)pyrrolidin-2-one], on human IRAK4, the IC50 is 7.19 nM. The compound further registered a half-inhibitory concentration (IC50) against canine Irak4 of 8.7 nM. Also, in series [1], the “CLblood, human microsomes” value was 5.33 mL/min/kg and the “Fmax, human microsomes” value was 76%.

For `CC(C)(O)C1CCN(c2nc(NC3CCS(=O)(=O)CC3)nc3c2cnn3-c2cccc(C(F)(F)F)c2)CC1` [Example I-5, 2-(1-{6-[(1,1-dioxidotetrahydro-2H-thiopyran-4-yl)amino]-1-[3-(trifluoromethyl)phenyl]-1H-pyrazolo[3,4-d]pyrimidin-4-yl)piperidin-4-yl)propan-2-ol], the values for the IC50 against human IRAK4 and against canine Irak4 were 10.5 nM and 9.27 nM, respectively. Moreover, in series [1], the “CLblood, human microsomes” value was 1.5 mL/min/kg. Further, the “Fmax, human microsomes” value in series [1] was 93%.

`CN1CC[C@H](Nc2nc(N3CCC(C(C)(C)O)CC3)c3cnn(-c4cccc(C(F)(F)F)c4)c3n2)C1` [Example I-13-1, 2-[1-(6-{[(3S)-1-methylpyrrolidin-3-yl]amino}-1-[3-(trifluoromethyl)phenyl]-1H-pyrazolo[3,4-d]pyrimidin-4-yl)piperidin-4-yl]propan-2-ol] registered an IC50 against human IRAK4 of 13.1 nM. This compound also yielded a concentration for half-maximal inhibition (IC50) against canine Irak4 of 26.4 nM. Also, in series [1], the “CLblood, human microsomes” value was 8.33 mL/min/kg and the “Fmax, human microsomes” value is given as 62%.

Take `CC(C)(O)C1CCN(c2nc(NC3CN(S(C)(=O)=O)C3)nc3c2cnn3-c2cccc(C(F)(F)F)c2)CC1` [Example I-14, 2-[1-(6-{[1-(methylsulfonyl)azetidin-3-yl]amino}-1-[3-(trifluoromethyl)phenyl]-1H-pyrazolo[3,4-d]pyrimidin-4-yl)piperidin-4-yl]propan-2-ol]: the figures for the IC50 against human IRAK4 and on canine Irak4 were 12 nM and 12.7 nM, respectively. Also, the “CLblood, human microsomes” value in series [1] is 1.2 mL/min/kg. In addition, in series [1], the “Fmax, human microsomes” value is 95%.

`O=S1(=O)CCC(Nc2nc(N3CC(N4CCOCC4)C3)c3cnn(-c4cccc(C(F)(F)F)c4)c3n2)CC1` [Example I-23, N-(1,1-dioxidotetrahydro-2H-thiopyran-4-yl)-4-[3-(morpholin-4-yl)azetidin-1-yl]-1-[3-(trifluoromethyl)phenyl]-1H-pyrazolo[3,4-d]pyrimidin-6-amine] showed a half-maximal inhibitory concentration (IC50) against human IRAK4 of 8.82 nM. In addition, the IC50 on canine Irak4 is 5.41 nM. Further, in series [1], the “CLblood, human microsomes” value is 2.83 mL/min/kg and the “Fmax, human microsomes” value is reported as 87%.

`CC(C)(O)C1CCN(c2nc(N[C@H]3C[C@](C)(N)C3)nc3c2cnn3-c2cccc(C(F)(F)F)c2)CC1` [Example I-57, 2-(1-{6-[(trans-3-amino-3-methylcyclobutyl)amino]-1-[3-(trifluoromethyl)phenyl]-1H-pyrazolo[3,4-d]pyrimidin-4-yl}piperidin-4-yl)propan-2-ol] showed an IC50 against human IRAK4 of 1.82 nM. At canine Irak4, this compound gave an IC50 of 1.98 nM. Also, in series [1], the “CLblood, human microsomes” value was 0.67 mL/min/kg and the “Fmax, human microsomes” value is listed as 97%.

Take `CC(C)(O)C1CCN(c2nc(N[C@H]3CCS(=O)(=O)C3)nc3c2cnn3-c2cccc(C(F)F)c2)CC1` [II-6, 2-[1-(1-[3-(difluoromethyl)phenyl]-6-{[(3S)-1,1-dioxidotetrahydrothiophen-3-yl]amino}-1H-pyrazolo[3,4-d]pyrimidin-4-yl)piperidin-4-yl]propan-2-ol]: the concentration for half-maximal inhibition (IC50) against human IRAK4 was 5.49 nM. For the same compound, in series [2], the “CLblood, dog microsomes” value is recorded as 0.46 L/h/kg and the “Fmax, dog microsomes” value is given as 78%. In series [1], the “CLblood, human microsomes” value is 3.17 mL/min/kg and the “Fmax, human microsomes” value is 86%.

In turn, `CC(C)(O)C1CCN(c2nc(NC3CN(S(C)(=O)=O)C3)nc3c2cnn3-c2cccc(C(F)F)c2)CC1` [II-12, 2-[1-(1-[3-(difluoromethyl)phenyl]-6-{[1-(methylsulfonyl)azetidin-3-yl]amino}-1H-pyrazolo[3,4-d]pyrimidin-4-yl)piperidin-4-yl]propan-2-ol] yielded a half-maximal inhibitory concentration (IC50) against human IRAK4 of 2.98 nM. In series [2], the “CLblood, dog microsomes” value is reported as 0.42 L/h/kg and the “Fmax, dog microsomes” value is 80%. Further, in series [1], the “CLblood, human microsomes” value was 4.17 mL/min/kg and the “Fmax, human microsomes” value was 81%.

For `CC(C)(O)C1CCN(c2nc(N[C@@H]3CNC(=O)C3)nc3c2cnn3-c2cccc(OC(F)F)c2)CC1` [IV-1, (4S)-4-({1-[3-(difluoromethoxy)phenyl]-4-[4-(2-hydroxypropan-2-yl)piperidin-1-yl]-1H-pyrazolo[3,4-d]pyrimidin-6-yl}amino)pyrrolidin-2-one], the IC50 against human IRAK4 was determined as 8.06 nM; on canine Irak4, 6.52 nM. In series [1], the “CLblood, human microsomes” value is 3 mL/min/kg. For the same compound, in series [1], the “Fmax, human microsomes” value is listed as 86%.

As to `CC(C)(O)C1CCN(c2nc(N[C@H]3C[C@H](S(C)(=O)=O)C3)nc3c2cnn3-c2cccc(OC(F)F)c2)CC1` [IV-2, 2-[1-(1-[3-(difluoromethoxy)phenyl]-6-{[trans-3-(methylsulfonyl)cyclobutyl]amino}-1H-pyrazolo[3,4-d]pyrimidin-4-yl)piperidin-4-yl]propan-2-ol], the IC50 against human IRAK4 was 3.42 nM. Besides, in series [2], the “CLblood, dog microsomes” value is on record as < 0.01 (stable) L/h/kg and the “Fmax, dog microsomes” value is reported as 100 (stable) %. In series [1], the “CLblood, human microsomes” value is 5.33 mL/min/kg and the “Fmax, human microsomes” value was 76%.
